Ki data for 18 molecules are collected here from ChEMBL document CHEMBL1146007, “Binding of sulfonyl-containing arylalkylamines at human 5-HT6 serotonin receptors” (J Med Chem, 2006).

In the test the target is 5-hydroxytryptamine receptor 6 (Homo sapiens, UniProt P50406). The test can be described thus: Binding affinity to human 5HT6 receptor in HEK293 cells by radioligand binding assay. In kind it is cell-based.
Chain of 5-hydroxytryptamine receptor 6 (P50406 whole entry): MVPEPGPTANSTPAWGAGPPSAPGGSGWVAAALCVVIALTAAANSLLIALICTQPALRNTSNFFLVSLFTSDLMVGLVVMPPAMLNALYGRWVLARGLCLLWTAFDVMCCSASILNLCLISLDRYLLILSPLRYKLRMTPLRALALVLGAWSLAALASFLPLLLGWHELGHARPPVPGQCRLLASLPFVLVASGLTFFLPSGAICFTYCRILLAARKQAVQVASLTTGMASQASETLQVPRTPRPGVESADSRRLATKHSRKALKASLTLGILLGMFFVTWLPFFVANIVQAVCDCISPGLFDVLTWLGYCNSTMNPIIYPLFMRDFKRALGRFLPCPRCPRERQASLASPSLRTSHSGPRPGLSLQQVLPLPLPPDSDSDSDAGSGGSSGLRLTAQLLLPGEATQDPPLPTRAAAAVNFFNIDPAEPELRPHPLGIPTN
For the molecule `NCCc1cccc(S(=O)(=O)c2ccccc2)c1`, the Ki – broadly, a measure of affinity in units of concentration, obtained from inhibition or displacement – is 50 nM.
Turning to `NCCc1cccc(NS(=O)(=O)c2ccccc2)c1`, the affinity, expressed as Ki, was 21 nM.
To `O=S(=O)(c1ccccc1)c1ccc(N2CCNCC2)cc1` belongs 6.9 nM; to `CNCCc1cccc(NS(=O)(=O)c2ccccc2)c1`, 38 nM; to `O=S(=O)(Nc1cccc(N2CCNCC2)c1)c1ccccc1`, 62 nM.
To `COc1ccc(NS(=O)(=O)c2ccccc2)cc1CCN` belongs 17 nM.
To `NCc1cccc(NS(=O)(=O)c2ccccc2)c1` belongs 290 nM.
Consider `Nc1cccc(NS(=O)(=O)c2ccccc2)c1`, for which the affinity corresponds to a Ki of 2840 nM.
As to `CN(C)CCc1ccn(S(=O)(=O)c2ccccc2)c1`, affinity was put at a Ki of 15 nM.
As to `NCCc1ccc(NS(=O)(=O)c2ccccc2)cc1`, the affinity, expressed as Ki, was 38 nM.
For `O=S(=O)(c1ccccc1)c1cccc(N2CCNCC2)c1`, the Ki is 1.2 nM.
On to `NCCc1cccc(S(=O)(=O)Nc2ccccc2)c1`, for which the Ki was 70 nM.
To `NCCc1cccc(Sc2ccccc2)c1` belongs 115 nM; to `CN(C)CCc1cccc(NS(=O)(=O)c2ccccc2)c1`, 52 nM; to `NCCc1ccc(S(=O)(=O)c2ccccc2)cc1`, 37 nM.
To `O=S(=O)(Nc1ccc(N2CCNCC2)cc1)c1ccccc1` belongs 85 nM; to `O=S(=O)(c1ccccc1)c1ccccc1N1CCNCC1`, 4000 nM.
To `NCCCc1cccc(NS(=O)(=O)c2ccccc2)c1` belongs 230 nM.
